Reference: ChEMBL document CHEMBL1155987, “2,3,4,5-Tetrahydro-1H-pyrido[2,3-b and e][1,4]diazepines as inhibitors of the bacterial enoyl ACP reductase, FabI” (Bioorg Med Chem Lett, 2009)
≈ marks a conversion by molar mass, not a printed value. Calls of active or inactive are those of the source. The rule behind the calls is not given here.

Assays:
Escherichia coli = assay: microbe, parasite or virus in culture
Description: Antibacterial activity against Escherichia coli efflux pump mutant by microdilution method

physchem [1] = conditions: aqueous, pH 4
Description: Aqueous solubility at pH 4.0

Staphylococcus aureus [2] = assay: microbe, parasite or virus in culture; conditions: 29213
Description: Antibacterial activity against Staphylococcus aureus 29213 by microdilution method

Staphylococcus aureus [3] = assay: microbe, parasite or virus in culture; conditions: 43300
Description: Antibacterial activity against methicillin-resistant Staphylococcus aureus 43300 by microdilution method

Staphylococcus aureus [4] = assay: microbe, parasite or virus in culture; conditions: 934335
Description: Antibacterial activity against triclosan-resistant Staphylococcus aureus 934335 by microdilution method

physchem [5] = conditions: aqueous, pH 7.4
Description: Aqueous solubility at pH 7.4

[6] = molecular target: T1, Enoyl-[acyl-carrier-protein] reductase [NADH] FabI (Escherichia coli K-12, UniProt P0AEK4)
T1 sequence (P0AEK4 whole entry): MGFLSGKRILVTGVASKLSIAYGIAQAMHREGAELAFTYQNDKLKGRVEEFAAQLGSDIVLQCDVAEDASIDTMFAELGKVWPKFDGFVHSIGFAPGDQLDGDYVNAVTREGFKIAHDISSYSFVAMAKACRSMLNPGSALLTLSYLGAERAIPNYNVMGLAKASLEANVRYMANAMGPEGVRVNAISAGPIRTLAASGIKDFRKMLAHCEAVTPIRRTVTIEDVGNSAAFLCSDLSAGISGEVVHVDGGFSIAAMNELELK
Description: Inhibition of Escherichia coli FabI

Staphylococcus aureus [7] = assay: Antibacterial activity against Staphylococcus aureus 29213 infected neutropenic mouse thigh model assessed as change in CFU at 100 mg/kg, po after 24 hrs; type: functional, organism-based; set-up: dose 100 mg/kg

Row | Structure (SMILES) | MIC (Escherichia coli) | solubility (physchem [1]) | MIC (Staphylococcus aureus [2]) | MIC (Staphylococcus aureus [3]) | MIC (Staphylococcus aureus [4]) | solubility (physchem [5]) | IC50 [6] | Activity (Staphylococcus aureus [7])
1 | Cc1c(CN(C)C(=O)/C=C/c2cnc3c(c2)CNCCN3)sc2ccccc12 | ≤ 0.063 µg/mL | 100 µg/mL (≈ 255 µM) | ≤ 0.016 µg/mL | 0.031 µg/mL (≈ 0.079 µM) | 2 µg/mL (≈ 5.1 µM) | 33 µg/mL (≈ 84.1 µM) | 9 nM | –
2 | Cc1c(CN(C)C(=O)/C=C/c2cnc3c(c2)CNCCCN3)oc2ccccc12 | 8 µg/mL (≈ 20.5 µM) | 1400 µg/mL (≈ 3590 µM) | 0.25 µg/mL (≈ 0.64 µM) | 0.5 µg/mL (≈ 1.28 µM) | 8 µg/mL (≈ 20.5 µM) | 210 µg/mL (≈ 538 µM) | 16 nM | –
3 | Cc1c(CN(C)C(=O)/C=C/c2cnc3c(c2)NCCC(=O)N3)sc2ccc(F)cc12 | 1 µg/mL (≈ 2.36 µM) | 31 µg/mL (≈ 73 µM) | ≤ 0.016 µg/mL | ≤ 0.016 µg/mL | 0.125 µg/mL (≈ 0.294 µM) | 38 µg/mL (≈ 89.5 µM) | 25 nM | –
4 | Cc1c(CN(C)C(=O)/C=C/c2cnc3c(c2)CNCCN3)oc2ccccc12 | ≤ 0.063 µg/mL | > 650 µg/mL | 0.063 µg/mL (≈ 0.167 µM) | 0.063 µg/mL (≈ 0.167 µM) | 4 µg/mL (≈ 10.6 µM) | 440 µg/mL (≈ 1170 µM) | 14 nM | –
5 | CN(Cc1cc2ccccc2n1C)C(=O)/C=C/c1cnc2c(c1)CCC(=O)N2 | ≤ 0.063 µg/mL | 6.2 µg/mL (≈ 16.6 µM) | ≤ 0.016 µg/mL | 0.031 µg/mL (≈ 0.0828 µM) | 0.5 µg/mL (≈ 1.34 µM) | 5.6 µg/mL (≈ 15 µM) | 150 nM | –
6 | CN(Cc1cc2ccccc2n1C)C(=O)/C=C/c1cnc2c(c1)NCCC(=O)N2 | 1 µg/mL (≈ 2.57 µM) | 25 µg/mL (≈ 64.2 µM) | 0.25 µg/mL (≈ 0.642 µM) | 0.125 µg/mL (≈ 0.321 µM) | 1 µg/mL (≈ 2.57 µM) | 33 µg/mL (≈ 84.7 µM) | 136 nM | –
7 | Cc1c(CN(C)C(=O)/C=C/c2cnc3c(c2)NCCC(=O)N3)oc2ccccc12 | ≤ 0.063 µg/mL | 1.5 µg/mL (≈ 3.84 µM) | ≤ 0.016 µg/mL | ≤ 0.016 µg/mL | ≤ 0.016 µg/mL | 1.7 µg/mL (≈ 4.35 µM) | 25 nM | –
8 | Cc1c(CN(C)C(=O)/C=C/c2cnc3c(c2)CCC(=O)N3)sc2ccccc12 | 4 µg/mL (≈ 10.2 µM) | 0.2 µg/mL (≈ 0.511 µM) | 0.125 µg/mL (≈ 0.319 µM) | ≤ 0.063 µg/mL | 4 µg/mL (≈ 10.2 µM) | 0.3 µg/mL (≈ 0.766 µM) | 64 nM | –
9 | CN(Cc1cc2ccccc2n1C)C(=O)/C=C/c1cnc2c(c1)CNCC(=O)N2 | 1 µg/mL (≈ 2.57 µM) | > 100 µg/mL | 0.125 µg/mL (≈ 0.321 µM) | 0.125 µg/mL (≈ 0.321 µM) | 1 µg/mL (≈ 2.57 µM) | 82 µg/mL (≈ 211 µM) | 330 nM | Active
10 | Cc1c(CN(C)C(=O)/C=C/c2cnc3c(c2)CNC(=O)CCN3)oc2ccccc12 | ≤ 0.063 µg/mL | 46 µg/mL (≈ 114 µM) | ≤ 0.016 µg/mL | 0.031 µg/mL (≈ 0.0766 µM) | 0.5 µg/mL (≈ 1.24 µM) | 17 µg/mL (≈ 42 µM) | 30 nM | –
11 | Cc1c(CN(C)C(=O)/C=C/c2cnc3c(c2)NCCCN3)oc2ccccc12 | ≤ 0.063 µg/mL | > 100 µg/mL | ≤ 0.016 µg/mL | 0.031 µg/mL (≈ 0.0823 µM) | 0.5 µg/mL (≈ 1.33 µM) | 29 µg/mL (≈ 77 µM) | 12 nM | –
12 | Cc1c(CN(C)C(=O)/C=C/c2cnc3c(c2)CNCC(=O)N3)oc2ccccc12 | ≤ 0.063 µg/mL | 170 µg/mL (≈ 435 µM) | ≤ 0.063 µg/mL | ≤ 0.063 µg/mL | 0.125 µg/mL (≈ 0.32 µM) | 20 µg/mL (≈ 51.2 µM) | 29 nM | –
13 | Cc1c(CN(C)C(=O)/C=C/c2cnc3c(c2)CNC(=O)CN3)oc2ccccc12 | ≤ 0.063 µg/mL | – | ≤ 0.063 µg/mL | ≤ 0.063 µg/mL | 4 µg/mL (≈ 10.2 µM) | – | 39 nM | –
14 | Cc1c(CN(C)C(=O)/C=C/c2cnc3c(c2)NCCC(=O)N3)[nH]c2ccccc12 | 4 µg/mL (≈ 10.3 µM) | 39 µg/mL (≈ 100 µM) | 0.031 µg/mL (≈ 0.0796 µM) | 0.063 µg/mL (≈ 0.162 µM) | 2 µg/mL (≈ 5.14 µM) | 37 µg/mL (≈ 95 µM) | 840 nM | –
15 | CN1CC(=O)Nc2ncc(/C=C/C(=O)N(C)Cc3cc4ccccc4n3C)cc2C1 | > 32 µg/mL | 73 µg/mL (≈ 181 µM) | 4 µg/mL (≈ 9.91 µM) | 0.5 µg/mL (≈ 1.24 µM) | 8 µg/mL (≈ 19.8 µM) | 9.7 µg/mL (≈ 24 µM) | – | –
